Measured values taken from publication doi:10.1101/2022.12.01.518643 (bioRxiv, 2022).
Where two headings read alike, the source gives them in different places.

Experiments:
[1] = tested on: T cell lines expanded in vitro with OC43 or SARS-CoV-2 peptides; test: IFN-γ ELISpot cross-reactivity between OC43 peptides and homologs of other coronaviruses; conditions: Table 1
[2] = tested on: peptide-expanded T cells from partially HLA-matched donors; test: IFN-γ ELISpot, single-peptide in vitro expanded T cells with single allele APC; assay type: cell-based, human; conditions: for minimal activating peptide concentration: dose range 10 – 10^−7 μg/mL; for T cell recognition, IFN-γ ELISpot: expanded T cells from HLA-matched donors
[3] = biological target: DP4 (HLA-DPA1*01:03/DPB1*04:01), DP4.1 (Homo sapiens, UniProt P04440+P20036); test: Fluorescence polarization competition binding assay, DP4.1; conditions: FP competition; Alexa488 oxytocinase probe 25 nM; DP4.1-Clip 250 nM; HLA-DM 500 nM; 37 °C, 24 h
[4] = biological target: soluble recombinant HLA-DR DRB1*15:01 (DR2b) (human)
[5] = biological target: soluble recombinant HLA-DR DRB5*01:01 (DR2a) (human)
[6] = tested on: single-peptide-expanded T cell lines; test: Intracellular cytokine staining (ICS) of single-peptide-expanded T cell lines; assay type: cell-based, human; conditions: single allele APC, 1 μg/mL
[7] = biological target: soluble DP4 (HLA-DPA1*01:03/DPB1*04:01) (human)
[8] = biological target: soluble recombinant HLA-DR DRB1*15:01 (DR2b) (human); test: fluorescence polarisation
DRB1*15:01 (DR2b) = DRB1*15:01 (DR2b) (Homo sapiens, UniProt P01903+P01911); test: Fluorescence polarization competition binding assay, DR2b; conditions: FP competition; Alexa488 MBP probe 25 nM; DR2b-CLIP 500 nM; HLA-DM 500 nM; 37 °C, 24 h
[9] = tested on: relevant alleles (DP4.1, DR2b, DR2a); test: Fluorescence polarization competition binding assay, relevant alleles; set-up: species or system human; conditions: six representative HLA-DR peptides
DRB5*01:01 (DR2a) = DRB5*01:01 (DR2a) (Homo sapiens, UniProt P01903+Q30154); test: Fluorescence polarization competition binding assay, DR2a; conditions: FP competition; Alexa488 influenza hemagglutinin probe 25 nM; DR2a-CLIP 250 nM; HLA-DM 500 nM; 37 °C, 24 h
[10] = biological target: soluble recombinant HLA-DR DRB5*01:01 (DR2a) (human); test: fluorescence polarisation

LTALNAYVSQQLSDS [Peptide P11, OC43 spike 1085–1099, naturally processed peptide eluted from HLA-DR]
SARS-CoV-2 cross-reactivity [1]: yes
minimal activating peptide concentration ([2]; donor 07): 1 µg/mL

LSDFINGIFAKVKNTK [Peptide P3, OC43 spike 97–111, naturally processed peptide eluted from HLA-DP]
minimal activating peptide concentration ([2]; expanded cells from donor 61): 10^−7 μg/mL

APYGLYFIHFSYVPTK [Peptide P6, OC43 spike 1140–1155, naturally processed peptide eluted from HLA-DP]
IC50 [3]: ≥ 10000 nM

OC43 nucleoprotein peptide 54–68 (P10)
IC50 [4]: < 1000 nM

OC43 spike peptide 98–114 (P12)
IC50 [4]: > 1000 nM
IC50 [5]: < 1000 nM

YLAISNELLLTVPTK [Peptide P1, OC43 hemagglutinin esterase 259–273, naturally processed peptide eluted from HLA-DP]
IC50 [3]: < 1000 nM

EGQQIIFYEGVNFTP [Peptide P8, OC43 hemagglutinin esterase 93–107, naturally processed peptide eluted from HLA-DR]
IFN-γ response in ICS [6]: did not produce a response
T cell recognition, IFN-γ ELISpot [2]: not recognized

OC43 nucleoprotein peptide 321–336 (P2)
IC50 [7]: > 10000 nM

OC43 hemagglutinin esterase peptide 93–107 (P8)
IC50 [8]: < 1000 nM

OC43 spike peptide 1085–1099 (P11)
IC50 [4]: < 1000 nM

ITTGYRFTNFEPFT [Peptide P5, OC43 spike 760–773, naturally processed peptide eluted from HLA-DP]
IC50 [3]: < 1000 nM

OC43 spike peptide 271–286 (P13)
IC50 [4]: < 1000 nM

DFINGIFAKVKNTKVIK [Peptide P12, OC43 spike 98–114, naturally processed peptide eluted from HLA-DR]
IC50 (DRB1*15:01 (DR2b)): ≥ 1000 nM
binding to DR2a / DR2b allotypes [9]: bound exclusively to DR2a
IC50 (DRB5*01:01 (DR2a)): < 1000 nM

OC43 spike peptide 760–773 (P5)
IC50 [7]: < 1000 nM

PSGGNVVPYYSWFSG [Peptide P10, OC43 nucleoprotein 54–68, naturally processed peptide eluted from HLA-DR]
minimal activating peptide concentration ([2]; donors 18, 22, and 40): 10^−5 μg/mL
minimal peptide concentrations ([2]; responding CD4 T cells, discussion): about 10 pg/mL

OC43 spike peptide 903–917 (P4)
IC50 [7]: < 10000 nM

OC43 spike peptide 1147–1164 (P7)
IC50 [7]: < 10000 nM

NRGRQFYEFYNDVKPP [Peptide P14, OC43 envelope 62–78, naturally processed peptide eluted from HLA-DP]
IFN-γ response in ICS [6]: did not produce a response
T cell recognition, IFN-γ ELISpot [2]: not recognized

OC43 spike peptide 1140–1155 (P6)
IC50 [7]: > 10000 nM

LFYTQVYKNMAVYRS [Peptide P9, OC43 hemagglutinin esterase 128–142, naturally processed peptide eluted from HLA-DR]
binding to DR2a / DR2b allotypes [9]: both allotypes
IC50 (DRB5*01:01 (DR2a)): < 1000 nM
minimal activating peptide concentration ([2]; donor 40): 1 µg/mL

OC43 spike peptide 97–111 (P3)
IC50 [7]: < 10000 nM

SRQYLLAFNQDGIIFN [Peptide P13, OC43 spike 271–286, naturally processed peptide eluted from HLA-DR]
IFN-γ response in ICS [6]: did not produce a response
IC50 (DRB1*15:01 (DR2b)): < 1000 nM
T cell recognition, IFN-γ ELISpot [2]: not recognized

GAFFFGSRLELAKVQN [Peptide P2, OC43 nucleoprotein 321–336, naturally processed peptide eluted from HLA-DP]
IC50 [3]: ≥ 10000 nM
minimal activating peptide concentration ([2]; expanded cells from donor 61): 10^−6 μg/mL

OC43 envelope protein peptide 62–78 (P14)
IC50 [7]: < 10000 nM

OC43 hemagglutinin esterase peptide 128–142 (P9)
IC50 [8]: < 1000 nM
IC50 [10]: < 1000 nM
